Results: ChEMBL document CHEMBL5576135, “Discovery of Indolo[3,2-c]isoquinoline Derivatives as Novel Top1/2 Dual Inhibitors with Orally Efficacious Antitumor Activity and Low Toxicity” (J Med Chem, 2024)
Active and inactive are the calls of the source. The calls are words filed in the database; no cut-off is given here.

How the values were obtained:
NCI-H446 [1] = experiment: Antitumor activity against human NCI-H446 cells xenografted with BALB/c mouse assessed as tumor growth inhibition at 100 mg/kg,po administrated once daily for 21 days relative to control; assay type: functional; conditions: NCI-H446, 504 h, time 21 day, read-out: TGI
NCI-H446 [2] = experiment: Antitumor activity against human NCI-H446 cells xenografted with BALB/c mouse assessed as tumor growth inhibition by measuring T/C ratio at 50 mg/kg,po administrated once daily for 21 days; assay type: functional; conditions: time 21 day
HCT-116 [3] = experiment: Antitumor activity against human HCT-116 cells xenografted with BALB/c mouse assessed as tumor growth inhibition at 50 mg/kg,po administrated once daily for 21 days relative to control; assay type: functional; conditions: HCT-116, 504 h, time 21 day, read-out: TGI
HCT-116 [4] = experiment: Antitumor activity against human HCT-116 cells xenografted with BALB/c mouse assessed as tumor growth inhibition by measuring T/C ratio at 50 mg/kg,po administrated once daily for 21 days; assay type: functional; conditions: time 21 day
HCT-116 [5] = experiment: Antitumor activity against human HCT-116 cells xenografted with BALB/c mouse assessed as tumor growth inhibition by measuring T/C ratio at 100 mg/kg,po administrated once daily for 21 days; assay type: functional; conditions: time 21 day
[6] = biological target: T1, DNA topoisomerase 1 (Homo sapiens) (UniProt P11387); experiment: Inhibition of Topoisomerase I (unknown origin) using pBR322 DNA as substrate at 5 uM incubated for 15 mins by EtBr staining based agarose gel electrophoresis method
T1 sequence (whole entry): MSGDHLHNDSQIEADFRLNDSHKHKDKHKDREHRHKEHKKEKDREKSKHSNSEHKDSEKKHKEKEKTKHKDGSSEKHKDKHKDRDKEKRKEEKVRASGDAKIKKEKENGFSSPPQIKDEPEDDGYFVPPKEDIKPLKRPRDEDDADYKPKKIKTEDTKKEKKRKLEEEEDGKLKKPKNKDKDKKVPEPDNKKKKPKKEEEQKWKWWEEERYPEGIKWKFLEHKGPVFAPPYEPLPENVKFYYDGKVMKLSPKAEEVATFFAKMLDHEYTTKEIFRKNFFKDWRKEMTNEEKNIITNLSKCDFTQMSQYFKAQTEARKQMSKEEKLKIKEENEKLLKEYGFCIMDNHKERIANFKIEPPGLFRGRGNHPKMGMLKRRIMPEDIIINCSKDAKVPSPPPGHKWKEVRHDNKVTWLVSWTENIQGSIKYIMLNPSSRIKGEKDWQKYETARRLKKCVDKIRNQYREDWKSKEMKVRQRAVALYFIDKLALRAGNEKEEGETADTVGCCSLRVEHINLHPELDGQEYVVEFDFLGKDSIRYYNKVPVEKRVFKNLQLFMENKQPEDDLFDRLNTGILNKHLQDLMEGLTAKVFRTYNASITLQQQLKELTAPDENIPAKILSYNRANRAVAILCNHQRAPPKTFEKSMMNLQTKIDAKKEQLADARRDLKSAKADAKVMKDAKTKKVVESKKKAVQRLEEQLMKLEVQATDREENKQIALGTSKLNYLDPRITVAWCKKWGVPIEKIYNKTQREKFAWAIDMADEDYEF

SMILES: CN(C)CCCn1c2cc3c(cc2c2ncc4ccccc4c21)OCO3
- inhibition in vivo at 100 mg/kg (NCI-H446 [1]): 66.1%
- T/C (NCI-H446 [2]): 52.3%
- inhibition in vivo at 50 mg/kg (HCT-116 [3]): 40.8%
- T/C (HCT-116 [4]): 55%
- T/C (HCT-116 [5]): 18%
- inhibition [6]: Active
